The values below come from ChEMBL document CHEMBL6109101, “Synthesis and bioactivity of cyclic peptide GG-8-6 analogues as anti-hepatocellular carcinoma agents” (Eur J Med Chem, 2025).

One data set has as its system HCCLM3. The experiment in a line: Cytotoxicity against human HCCLM3 cells assessed as inhibition of cell proliferation incubated for 48 hrs by MTT assay. In kind it is functional, cell-based. The settings on record: HCCLM3, 48 h. (Tetrazolium dyes change colour on reduction, which living cells bring about.)
Data set [1] in a line: Toxicity in nude mouse implanted with human MHCC97H cells assessed as body weight at 10 mg/kg, po administered daily for 3 weeks and measured immediately (reference value: 25.05 g). The class given is organism-based. The settings on record: in vivo, 504 h.
The nature of data set [2]: Toxicity in nude mouse implanted with human MHCC97H cells assessed as body weight at 15 mg/kg, po administered daily for 3 weeks and measured immediately (reference value: 25.05 g). In kind it is organism-based. The settings on record: in vivo, 504 h.
The subject of another data set is MHCC97H. Kind of data set: Cytotoxicity against human MHCC97H cells assessed as inhibition of cell proliferation incubated for 48 hrs by MTT assay. In kind it is functional, cell-based.
The test system of a further data set is Huh-7. Kind of data set: Cytotoxicity against human Huh-7 cells assessed as inhibition of cell proliferation incubated for 48 hrs by MTT assay. The class given is functional, cell-based. The settings on record: Huh-7, 48 h.
A short description of data set [3]: Toxicity in nude mouse implanted with human MHCC97H cells assessed as body weight at 10 mg/kg, po administered daily for 3 weeks and measured at day 22 (reference value: 26.38 g). The settings on record: in vivo, 1032 h, time 43 day. In kind it is organism-based.
Data set [4] in a line: Toxicity in nude mouse implanted with human MHCC97H cells assessed as lung damage at 5 to 15 mg/kg, po administered daily for 3 weeks by H and E staining based analysis. The settings on record: in vivo, 504 h, dose 5-15 mg/kg. The class given is organism-based.
Data set [5] in a line: Toxicity in nude mouse implanted with human MHCC97H cells assessed as heart damage at 5 to 15 mg/kg, po administered daily for 3 weeks by H and E staining based analysis. In kind it is organism-based. Particulars: in vivo, 504 h, dose 5-15 mg/kg.
Data set [6] is described as follows: Toxicity in nude mouse implanted with human MHCC97H cells assessed as spleen damage at 5 to 15 mg/kg, po administered daily for 3 weeks by H and E staining based analysis. The class given is organism-based. The settings on record: in vivo, 504 h, dose 5-15 mg/kg.
A further data set concerns HepG2. The experiment in a line: Cytotoxicity against human HepG2 cells assessed as inhibition of cell proliferation incubated for 48 hrs by MTT assay. The class given is functional, cell-based. Particulars: HepG2, 48 h.
Data set [7] is described as follows: Toxicity in nude mouse implanted with human MHCC97H cells assessed as kidney damage at 5 to 15 mg/kg, po administered daily for 3 weeks by H and E staining based analysis. In kind it is organism-based. The settings on record: in vivo, 504 h, dose 5-15 mg/kg.
The nature of data set [8]: Toxicity in nude mouse implanted with human MHCC97H cells assessed as body weight at 15 mg/kg, po administered daily for 3 weeks and measured at day 22 (reference value: 26.38 g). The class given is organism-based. Particulars: in vivo, 1032 h, time 43 day.
A short description of data set [9]: Toxicity in nude mouse implanted with human MHCC97H cells assessed as body weight at 5 mg/kg, po administered daily for 3 weeks and measured immediately (reference value: 25.05 g). In kind it is organism-based. The settings on record: in vivo, 504 h.
A short description of data set [10]: Toxicity in nude mouse implanted with human MHCC97H cells assessed as body weight at 5 mg/kg, po administered daily for 3 weeks and measured at day 22 (reference value: 26.38 g). The settings on record: in vivo, 1032 h, time 43 day. In kind it is organism-based.
Data set [11] can be described thus: Toxicity in nude mouse implanted with human MHCC97H cells assessed as liver damage at 5 to 15 mg/kg, po administered daily for 3 weeks by H and E staining based analysis. In kind it is organism-based. The settings on record: in vivo, 504 h, dose 5-15 mg/kg.
Data set [12] can be described thus: Toxicity in nude mouse implanted with human MHCC97H cells assessed as kidney damage at 5 to 10 mg/kg, po administered daily for 3 weeks by H and E staining based analysis. The class given is organism-based. The settings on record: in vivo, 504 h, dose 5-10 mg/kg.
A short description of data set [13]: Toxicity in nude mouse implanted with human MHCC97H cells assessed as heart damage at 5 to 10 mg/kg, po administered daily for 3 weeks by H and E staining based analysis. The class given is organism-based. The settings on record: in vivo, 504 h, dose 5-10 mg/kg.
The nature of data set [14]: Toxicity in nude mouse implanted with human MHCC97H cells assessed as lung damage at 5 to 10 mg/kg, po administered daily for 3 weeks by H and E staining based analysis. The class given is organism-based. Particulars: in vivo, 504 h, dose 5-10 mg/kg.
Data set [15] in a line: Toxicity in nude mouse implanted with human MHCC97H cells assessed as liver damage at 5 to 10 mg/kg, po administered daily for 3 weeks by H and E staining based analysis. The class given is organism-based. The settings on record: in vivo, 504 h, dose 5-10 mg/kg.
Data set [16] in a line: Toxicity in nude mouse implanted with human MHCC97H cells assessed as spleen damage at 5 to 10 mg/kg, po administered daily for 3 weeks by H and E staining based analysis. In kind it is organism-based. The settings on record: in vivo, 504 h, dose 5-10 mg/kg.

A value given as a limit tells only on which side of the number the result lay.

By IC50 is commonly meant the concentration needed to halve the response being measured. As to `CC[C@H](C)[C@@H]1NC(=O)[C@@H]2CCCN2C(=O)[C@H](CC(C)C)NC(=O)[C@H](CO)NC(=O)[C@H](CC(C)C)NC(=O)[C@H](C(C)C)NC(=O)[C@H](CC(C)C)NC(=O)[C@H](CC(C)C)NC(=O)[C@H](CC(C)C)NC1=O`, the concentration for half-maximal inhibition (IC50) was 35.7 µM with HCCLM3, 33.3 µM in the data set on MHCC97H, more than 100 µM with Huh-7 and more than 100 µM in the data set on HepG2. Also, the Activity in data set [1] was 25 g; in data set [2], 24.9 g; in data set [3] it was 26.3 g; in data set [4] it was “Non-toxic”; in data set [5], “Non-toxic”; in data set [6], “Non-toxic”. In addition, the Activity result in data set [7] was “Non-toxic”; in [8], 26.3 g; in data set [9] it was 25.43 g; in data set [10], 26.38 g; in data set [11] it was “Non-toxic”.
As to `CC[C@H](C)[C@@H]1NC(=O)[C@@H]2CCCN2C(=O)[C@H](CC(C)C)NC(=O)[C@H](COC(C)(C)C)NC(=O)[C@H](CC(C)C)NC(=O)[C@H](C(C)C)NC(=O)[C@H](CC(C)C)NC(=O)[C@H](CC(C)C)NC(=O)[C@H](CC(C)C)NC1=O`, the IC50 in the data set with HCCLM3 was 4.6 µM; with MHCC97H, 4.1 µM; with Huh-7 it was 3.29 µM; in the data set with HepG2 it was 3.29 µM. Besides, the Activity in data set [1] is recorded as 25.6 g; in [3], 26.43 g; in data set [12] it was “Non-toxic”; in data set [13] it was “Non-toxic”; in [14], “Non-toxic”; in [15], “Non-toxic”. For the same compound, the values for the Activity in [9], in data set [10] and in data set [16] were 25.98 g, 26.7 g and “Non-toxic”, respectively.
